Reference: patent publication US20260232603A1, “A METHOD OF PREPARING AN AQUEOUS DISPERSION OF NANOPARTICLES” (IQ MEDICAL GMBH, priority 2023, published 2026)
Converted amounts (≈) assume the structure as drawn. Read-outs that look alike come from different tables or passages of the source.

Tests used:
[1] = Table 8, cited from earlier work; for pKa: first value where several are printed
[2] = cited from earlier work
[3] = Pharmacokinetics of tacrolimus encapsulated in E100, sublingual cross-over, rats (2022NCM003); format: in vivo, Sprague Dawley rats; settings: 5 mg per kg
Protocol: The pharmacokinetic profile of three different nanoparticular formulations of Tacrolimus after sublingual administration in five naïve male Sprague Dawley rats with 14 days wash-out interval was evaluated. To eliminate the inter-individual variability, the same animals were administered in an intra-individual three-way cross-over after washout period. The animals were housed in a separate temperature-controlled room (20-24° C.) and maintained in a 12 h light/12 h dark cycle. Food and water were available ad libitum throughout the duration of the study.
Formulations were freshly prepared on the day of application using the procedure described herein and administered freshly after arrival.
Dose (and applied volume of the nanosuspension) was adjusted individually to the body weight of the animal.
Test item formulations were administered sublingual to 5 animals with […] wash-out intervals at a dose of 5 mg per kg body weight. Application procedure and blood sampling was as described before.
Tacrolimus whole blood concentrations were analysed by LC-MS/MS and Cmax, tmax, and AUC were calculated.
Preparation of working solutions for calibration standards and quality controls Individual stock solutions were used for preparation of calibration standards and quality control samples (QCs).
All samples were kept on ice until the addition of the precipitation reagent. […]

[4] = Pharmacokinetics of sirolimus encapsulated in E100, sublingual, rats (2022NCM001); format: in vivo, Sprague Dawley rats; settings: 5 mg per kg
Protocol: Naïve, adult male Sprague Dawley rats of around 300 g body weight were housed in a separate temperature-controlled room (20-24° C.) and maintained in a 12 h light/12 h dark cycle. Food and water were available ad libitum throughout the duration of the study.
Formulation was freshly prepared on the day of application. It was administered sublingually to each animal at a dose of 5 mg per kg body weight.
For sublingual administration, rats were shortly anaesthetized with isoflurane. Prior to application, the sublingual area was blotted dry with cotton swabs. The appropriate volume of the formulation was applied under the tongue with a pipette. The animals were kept in a sitting position for 5 minutes. After 5 minutes the area under the tongue was blotted dry again to avoid oral administration of the remaining suspension. Then the animals were placed into the cage until recovery.
Blood samples were collected by puncture of the lateral tail vein at the following time points: predose, 15 min, 30 min, 1 h, 2 h, 4 h, 8 h and 24 h post dose. At each of the designated time points 20 μl blood was collected from the tail vein into K3-EDTA capillaries (Minivette POCT, […]). The blood samples were transferred into polypropylene tubes and frozen on dry ice within 1-2 min. of sampling and stored at −20° C. until LC-MS analysis. […]

[5] = Pharmacokinetics of two sirolimus E100 nanoformulations, sublingual cross-over, rats (2022NCM002); format: in vivo; settings: two nanoparticular formulations (FLM04_025, FLM02_b230)
Protocol: To eliminate the inter-individual variability, the same animals were administered in an intra-individual two-way cross-over after an appropriate washout period.
Two different approaches were followed in that a surfactant was included either during precipitation (FLM04_025) or after precipitation (FLM02_b230) as shown in FIG. 32.
Formulations were freshly prepared on the day of application using the procedure as described herein.
Test item formulations were administered sublingual to animals with 7 days wash-out intervals at a […] per kg body weight. Application procedure, blood sampling and their as quantification was as described before.

[6] = Saturation solubility of sirolimus in selected solvents; format: physicochemical; settings: thermodynamic from solid, room temperature, HPLC of supernatant
Protocol: One task is the production of a highly concentrated dispersion. The prerequisite for this is the use of a solvent for the production of the dispersion in which the active substance has a high solubility. […] Crystalline active ingredient was added to a defined amount of solvent at room temperature while stirring until an insoluble sediment was formed.

[7] = nanoparticular dispersion based on Eudragit E100, rats

For CCCCCCCC/C=C\CCCCCCCC(=O)O [Oleic Acid], which Water solubility [1] is on record?
The Water solubility was 0.0001 mg/mL.

Which results are given for O=C(O)CC(O)C(=O)O (stereo not drawn) [Malic acid]?
Water solubility [1]: 218 mg/mL; pKa [1]: 3.2

Which pKa [1] does the source give for CCCCCCCC(=O)O [Octanoic Acid] here?
The pKa was 5.19.

What does the source list for CCC(C)n1ncn(-c2ccc(N3CCN(c4ccc(OCC5COC(Cn6cncn6)(c6ccc(Cl)cc6Cl)O5)cc4)CC3)cc2)c1=O (stereo not drawn) [Itraconazole]?
Log P [2]: 5.66; Water solubility [2]: 0.0096 mg/mL

Which results are given for C=CC[C@@H]1/C=C(\C)C[C@H](C)C[C@H](OC)[C@H]2O[C@@](O)(C(=O)C(=O)N3CCCC[C@H]3C(=O)O[C@H](/C(C)=C/[C@@H]3CC[C@@H](O)[C@H](OC)C3)[C@H](C)[C@@H](O)CC1=O)[C@H](C)C[C@@H]2OC [Tacrolimus]?
Log P [2]: 4.5; detection in blood after sublingual administration [3, 7]: detected in the blood of all rats; time of maximum concentration (t_max) ([3]; nanoparticular dispersion based on Eudragit E100, whole blood, rats): 30 min

With CCCCCCCCCCCCCCCCCC(=O)O [Stearic Acid] as the molecule, how does the pKa [1] read?
The pKa was 4.95.

What does the source list for CO[C@H]1C[C@@H]2CC[C@@H](C)[C@@](O)(O2)C(=O)C(=O)N2CCCC[C@H]2C(=O)O[C@H]([C@H](C)C[C@@H]2CC[C@@H](O)[C@H](OC)C2)CC(=O)[C@H](C)/C=C(\C)[C@@H](O)[C@@H](OC)C(=O)[C@H](C)C[C@H](C)/C=C/C=C/C=C/1C [sirolimus]?
Log P [2]: 4.56; time of maximum concentration (t_max) ([4]; 5 min application, nanoparticular dispersion based on Eudragit E100, blood, rats): 30 min; detection in blood after sublingual administration [4, 7]: detected in the blood of all rats; detection in blood after sublingual administration [5]: detected in the blood of all rats; solubility ([6]; acetone, organic solvent or mixture, saturation solubility in Acetone (polar aprotic)): ≥ 200 mg/mL; solubility ([6]; ethanol, organic solvent or mixture, saturation solubility in Ethanol (polar protic)): 179 mg/mL (≈ 196 mM); solubility ([6]; iso-propanol, organic solvent or mixture, saturation solubility in iso-Propanol (polar protic)): 25 mg/mL (≈ 27.3 mM); solubility ([6]; methanol, organic solvent or mixture, saturation solubility in Methanol (polar protic)): 246 mg/mL (≈ 269 mM); solubility ([6]; water, saturation solubility in Water (polar protic)): ~0.001 mg/mL (≈ 0.00109 mM)

With CCCCC(=O)O [Valeric acid] as the molecule, how does the Water solubility [1] read?
Its Water solubility is 40 mg/mL.

What about the pKa [1] of the same molecule?
The pKa was 5.01.
